According to ChEMBL document CHEMBL1127963, “Vasoactive eicosanoids: Synthesis of 12,20-dihydroxyeicosa-5(Z),8(Z),10(E),14(Z)-tetraenoic acid via a novel chiral bis-lactol” (1994):

Species: Canis familiaris
Experiment: Compound was tested relaxation of contracted coronary arteries of canine at 5 x 10-e M (p<0.01)
Type: functional, Canis lupus familiaris

Work on O=C(O)CCC/C=C\C/C=C\C=C\C(O)C/C=C\CCCCCO (stereo unspecified) yielded a Relation of 48%.
